Data from PubChem BioAssay (NCI).
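Protocol summary: plate cells (96-well), add compound at 5 concentrations, incubate 48 h, interpolate endpoints linearly. GI50: concentration for 50% inhibition of growth. TGI: concentration producing complete growth inhibition.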

Assays:
Assay in all cases: DTP human tumour cell line panel, 48 h
[1] = tested on: TK-10 renal
[2] = tested on: MDA-MB-468 breast
[3] = tested on: UACC-257 melanoma
[4] = tested on: HOP-62 NSCLC
[5] = tested on: MDA-MB-435
[6] = tested on: MCF7 breast
[7] = tested on: CAKI-1 renal
[8] = tested on: HCC-2998 colon
[9] = tested on: NCI-H226 lung
[10] = tested on: SK-OV-3 ovarian
[11] = tested on: HOP-92 NSCLC
[12] = tested on: SW-620 colon
[13] = tested on: NCI-H460 lung
[14] = tested on: ACHN renal
[15] = tested on: SR leukemia
[16] = tested on: A498 renal
[17] = tested on: PC-3 prostate
[18] = tested on: HCT-116 colon
[19] = tested on: NCI-H23 lung
[20] = tested on: OVCAR-4 ovarian
[21] = tested on: BT-549 breast
[22] = tested on: OVCAR-3 ovarian
[23] = tested on: HL-60(TB) leukemia
[24] = tested on: HT29 colon
[25] = tested on: SK-MEL-28 melanoma
[26] = tested on: MOLT-4 leukemia
[27] = tested on: IGROV1 ovarian
[28] = tested on: NCI/ADR-RES ovarian
[29] = tested on: MDA-MB-231 breast
[30] = tested on: UACC-62 melanoma
[31] = tested on: RXF 393 renal
[32] = tested on: T-47D breast
[33] = tested on: LOX IMVI melanoma
[34] = tested on: SF-295 CNS
[35] = tested on: SF-268 CNS
[36] = tested on: HCT-15 colon
[37] = tested on: 786-0 renal
[38] = tested on: SK-MEL-5 melanoma
[39] = tested on: SN12C renal
[40] = tested on: A549 NSCLC
[41] = tested on: UO-31 renal
[42] = tested on: SNB-19 CNS
[43] = tested on: COLO 205 colon
[44] = tested on: K-562 leukemia
[45] = tested on: OVCAR-8 ovarian
[46] = tested on: MALME-3M melanoma
[47] = tested on: U251 CNS
[48] = tested on: HS 578T breast
[49] = tested on: SNB-75 CNS
[50] = tested on: SF-539 CNS
[51] = tested on: M14 melanoma
[52] = tested on: EKVX NSCLC
[53] = tested on: RPMI-8226 leukemia
[54] = tested on: CCRF-CEM leukemia
[55] = tested on: OVCAR-5 ovarian
[56] = tested on: KM12 colon
[57] = tested on: SK-MEL-2 melanoma
[58] = tested on: DU-145 prostate
[59] = tested on: NCI-H522 lung

Compound: O=C(COc1ccc(NC(=O)Nc2ccc(Cl)c(Cl)c2)cc1)N=Nc1c(O)[nH]c2ccc(Br)cc12
- GI50 [1]: 2460 nM
- TGI [1]: 7790 nM
- GI50 [2]: 1750 nM
- TGI [2]: 3460 nM
- GI50 [3]: 1790 nM
- TGI [3]: 3560 nM
- GI50 [4]: 2030 nM
- TGI [4]: 3950 nM
- GI50 [5]: 1550 nM
- TGI [5]: 3250 nM
- GI50 [6]: 2010 nM
- TGI [6]: 4710 nM
- GI50 [7]: 2050 nM
- TGI [7]: 4300 nM
- GI50 [8]: 1820 nM
- TGI [8]: 3890 nM
- GI50 [9]: 1980 nM
- TGI [9]: 3860 nM
- GI50 [10]: 2080 nM
- TGI [10]: 4290 nM
- GI50 [11]: 1930 nM
- TGI [11]: 4450 nM
- GI50 [12]: 1460 nM
- TGI [12]: 3060 nM
- GI50 [13]: 1600 nM
- TGI [13]: 3540 nM
- GI50 [14]: 2940 nM
- TGI [14]: 9120 nM
- GI50 [15]: 2550 nM
- TGI [15]: 7980 nM
- GI50 [16]: 1560 nM
- TGI [16]: 3790 nM
- GI50 [17]: 1150 nM
- TGI [17]: 3440 nM
- GI50 [18]: 166 nM
- TGI [18]: 369 nM
- GI50 [19]: 1990 nM
- TGI [19]: 3990 nM
- GI50 [20]: 1900 nM
- TGI [20]: 4100 nM
- GI50 [21]: 28.8 nM
- TGI [21]: 2230 nM
- GI50 [22]: 1080 nM
- TGI [22]: 3130 nM
- GI50 [23]: 2020 nM
- TGI [23]: 4660 nM
- GI50 [24]: 1860 nM
- TGI [24]: 3780 nM
- GI50 [25]: 1830 nM
- TGI [25]: 3430 nM
- GI50 [26]: 629 nM
- TGI [26]: 2690 nM
- GI50 [27]: 1880 nM
- TGI [27]: 3920 nM
- GI50 [28]: > 100000 nM
- TGI [28]: > 100000 nM
- GI50 [29]: 1810 nM
- TGI [29]: 3350 nM
- GI50 [30]: 1850 nM
- TGI [30]: 3770 nM
- GI50 [31]: 1520 nM
- TGI [31]: 3040 nM
- GI50 [32]: 1960 nM
- TGI [32]: 4570 nM
- GI50 [33]: 1090 nM
- TGI [33]: 2300 nM
- GI50 [34]: 1630 nM
- TGI [34]: 3200 nM
- GI50 [35]: 1630 nM
- TGI [35]: 5150 nM
- GI50 [36]: 6130 nM
- TGI [36]: 45500 nM
- TGI [37]: 920 nM
- GI50 [38]: 1700 nM
- TGI [38]: 3090 nM
- GI50 [39]: 1820 nM
- TGI [39]: 3450 nM
- GI50 [40]: 2060 nM
- TGI [40]: 5000 nM
- GI50 [41]: 11500 nM
- TGI [41]: 45900 nM
- GI50 [42]: 2680 nM
- TGI [42]: 8420 nM
- GI50 [43]: 1830 nM
- TGI [43]: 3310 nM
- GI50 [44]: 1260 nM
- TGI [44]: 6470 nM
- GI50 [45]: 2340 nM
- TGI [45]: 5420 nM
- GI50 [46]: 1640 nM
- TGI [46]: 3030 nM
- GI50 [47]: 1710 nM
- TGI [47]: 3390 nM
- GI50 [48]: 2250 nM
- TGI [48]: 6710 nM
- GI50 [49]: 1330 nM
- TGI [49]: 2840 nM
- GI50 [50]: 1660 nM
- TGI [50]: 3120 nM
- GI50 [51]: 231 nM
- TGI [51]: 634 nM
- GI50 [52]: 2370 nM
- TGI [52]: 7060 nM
- GI50 [53]: 2190 nM
- TGI [53]: 6370 nM
- GI50 [54]: 812 nM
- TGI [54]: 6130 nM
- GI50 [55]: 1820 nM
- TGI [55]: 3890 nM
- GI50 [56]: 1950 nM
- TGI [56]: 4120 nM
- GI50 [57]: 1970 nM
- TGI [57]: 4270 nM
- GI50 [58]: 3070 nM
- TGI [58]: 9520 nM
- GI50 [59]: 1810 nM
- TGI [59]: 3620 nM
